Test results published in US9957264B2 (Merck Sharp & Dohme Corp., priority 2013, dated 2018).

Key:
[1] = target: JAK1 (recombinant purified GST-tagged catalytic domain) (Homo sapiens (Human), UniProt P23458); test: Jak Biochemical HTRF Assay (JAK1); details: [ATP] 31.8 μM
Procedure, shortened: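 Read-out is the 665/615 nm time-resolved FRET ratio from Eu-pY20 antibody and streptavidin-Dylight 650 bound to phosphorylated biotin-peptide. Reactions ran 120 min at room temperature after ATP start. Inhibition normalized to untreated controls gave IC50 via 4-parameter fit.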

[2] = target: JAK2 (recombinant purified GST-tagged catalytic domain) (Homo sapiens (Human), UniProt O60674); test: Jak Biochemical HTRF Assay (JAK2); details: [ATP] 8.5 μM
Method: Jak Biochemical HTRF Assay Protocol
The ability of compounds to inhibit the activity of JAK1, JAK2, JAK3, and Tyk2 was measured using a recombinant purified GST-tagged catalytic domain for each enzyme (Invitrogen JAK1 #M4290, JAK2 #M4290, JAK3 #M4290, Tyk2 #M4290) in an HTRF format biochemical assay. […] The basic assay protocol is as follows: First, 250 nL of diluted compounds in DMSO were dispensed into the wells of a dry 384-well Black plate (Greiner #781076) using a Labcyte Echo 555 acoustic dispenser. Subsequent reagent additions employed an Agilent Bravo. […] After equilibration, 2 μL of 10×ATP in 1× assay buffer was added to initiate the kinase reaction and the plates were shaken and then incubated at room temperature for 120 minutes. […] Plates were shaken and centrifuged and then incubated 60 minutes at room temperature and then read on a Perkin Elmer Envision (λex=337 nm, λem=665 and 615 nm, TRF delay time=20 μs). HTRF signal=10,000*665 nm reading/615 nm reading. After normalization to untreated controls, the percent inhibition of the HTRF signal at each compound concentration was calculated. The plot of percent inhibition versus the log of compound concentration was fit with a 4-parameter dose response equation to calculate IC50 values.
Final reaction conditions were:
Examples of the instant invention were evaluated in JAK1 and JAK2 in vitro binding assays as described above.

Chain of JAK1 (recombinant purified GST-tagged catalytic domain) (P23458 875-1153): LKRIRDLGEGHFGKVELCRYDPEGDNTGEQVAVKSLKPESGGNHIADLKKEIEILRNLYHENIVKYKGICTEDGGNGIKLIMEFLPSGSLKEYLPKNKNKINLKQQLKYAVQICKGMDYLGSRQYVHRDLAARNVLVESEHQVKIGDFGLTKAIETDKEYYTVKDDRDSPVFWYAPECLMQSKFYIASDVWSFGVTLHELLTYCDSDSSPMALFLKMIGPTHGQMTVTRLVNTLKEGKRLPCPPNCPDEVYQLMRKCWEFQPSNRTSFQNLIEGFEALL
Chain of JAK2 (recombinant purified GST-tagged catalytic domain) (O60674 849-1124): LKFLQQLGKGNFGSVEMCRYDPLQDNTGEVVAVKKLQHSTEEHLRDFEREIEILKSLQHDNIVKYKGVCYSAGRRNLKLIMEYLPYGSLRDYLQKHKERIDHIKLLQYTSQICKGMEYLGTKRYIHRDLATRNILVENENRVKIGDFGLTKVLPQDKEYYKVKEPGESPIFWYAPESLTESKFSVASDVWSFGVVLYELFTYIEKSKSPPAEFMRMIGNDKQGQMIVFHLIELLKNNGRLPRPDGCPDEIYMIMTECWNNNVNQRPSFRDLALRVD

SMILES | IC50 [1] | IC50 [2]
CC(C)(C)OC(=O)[C@H]1CC[C@@](CC#N)(n2nc(Nc3ccc([C@H](N)C(F)(F)F)cc3)c3c(=O)[nH]ccc32)CO1 (single isomer, unassigned) [Example 5-52, (2R,5S)-tert-butyl 5-(3-((4-((S or R)-1-amino-2,2,2-trifluoroethyl)phenyl)amino)-4-oxo-4,5-dihydro-1H-pyrazolo[4,3-c]pyridin-1-yl)-5-(cyanomethyl) tetrahydro-2H-pyran-2-carboxylate] | 11.7 nM | 30.3 nM
CC(C)(C)OC(=O)[C@@H]1CC[C@@](CC#N)(n2nc(Nc3ccc([C@H](N)C(F)(F)F)cc3)c3c(=O)[nH]ccc32)CO1 (single isomer, unassigned) [Example 5-53, (2S,5S)-tert-butyl 5-(3-((4-((S or R)-1-amino-2,2,2-trifluoroethyl)phenyl)amino)-4-oxo-4,5-dihydro-1H-pyrazolo[4,3-c]pyridin-1-yl)-5-(cyanomethyl) tetrahydro-2H-pyran-2-carboxylate] | 0.19 nM | 0.57 nM
CC(O)(c1ccc(Nc2nn([C@@]3(CC#N)CCCC[C@H]3F)c3cc[nH]c(=O)c23)cc1)C(F)(F)F (single isomer, unassigned) [Example 5-85, {(1R,2R)-2-fluoro-1-[4-oxo-3-({4-[(1S or 1R)-2,2,2-trifluoro-1-hydroxy-1-methylethyl]phenyl}amino)-4,5-dihydro-1H-pyrazolo[4,3-c]pyridin-1-yl]cyclohexyl}acetonitrile] | 0.07 nM | 0.17 nM
CC(O)(c1ccc(Nc2nn([C@@]3(CC#N)CCCC[C@H]3F)c3cc[nH]c(=O)c23)cc1)C(F)(F)F (single isomer, unassigned) [Example 5-86, {(1R,2R)-2-fluoro-1-[4-oxo-3-({4-[(1R or 1S)-2,2,2-trifluoro-1-hydroxy-1-methylethyl]phenyl}amino)-4,5-dihydro-1H-pyrazolo[4,3-c]pyridin-1-yl]cyclohexyl}acetonitrile] | 0.07 nM | 0.11 nM
N#CCC1(n2nc(Nc3ccc(C(N)C(F)(F)F)cc3)c3c(=O)[nH]ccc32)CCCC1 (single isomer, unassigned) [Example 5-88, (R or S)-2-(1-(3-((4-(1-amino-2,2,2-trifluoroethyl)phenyl)amino)-4-oxo-4,5-dihydro-1H-pyrazolo[4,3-c]pyridin-1-yl)cyclopentyl)acetonitrile] | 0.46 nM | 1.56 nM
N#CCC1(n2nc(Nc3ccc(C(N)C(F)(F)F)cc3)c3c(=O)[nH]ccc32)CCCC1 (single isomer, unassigned) [Example 5-89, (R or S)-2-(1-(3-((4-(1-amino-2,2,2-trifluoroethyl)phenyl)amino)-4-oxo-4,5-dihydro-1H-pyrazolo[4,3-c]pyridin-1-yl)cyclopentyl)acetonitrile] | 0.5 nM | 1.74 nM
CC1CCN1S(=O)(=O)c1ccc(Nc2nn([C@]3(CC#N)CCCOC3)c3cc[nH]c(=O)c23)cc1 (single isomer, unassigned) [Example 5-108, [(3S)-3-{3-[(4-{[(2R or 2S)-2-methylazetidin-1-yl]sulfonyl}phenyl)amino]-4-oxo-4,5-dihydro-1H-pyrazolo[4,3-c]pyridin-1-yl}tetrahydro-2H-pyran-3-yl]acetonitrile] | 0.12 nM | 0.23 nM
CC1CCN1S(=O)(=O)c1ccc(Nc2nn([C@]3(CC#N)CCCOC3)c3cc[nH]c(=O)c23)cc1 (single isomer, unassigned) [Example 5-109, [(3S)-3-{3-[(4-{[(2S or 2R)-2-methylazetidin-1-yl]sulfonyl}phenyl)amino]-4-oxo-4,5-dihydro-1H-pyrazolo[4,3-c]pyridin-1-yl}tetrahydro-2H-pyran-3-yl]acetonitrile] | 0.25 nM | 0.29 nM
CC(O)(c1ccc(Nc2nn([C@]3(CC#N)CCCOC3)c3cc[nH]c(=O)c23)cc1)C(F)(F)F (single isomer, unassigned) [Example 5-110, {(3S)-3-[4-oxo-3-({4-[(1S or 1R)-2,2,2-trifluoro-1-hydroxy-1-methylethyl]phenyl}amino)-4,5-dihydro-1H-pyrazolo[4,3-c]pyridin-1-yl]tetrahydro-2H-pyran-3-yl}acetonitrile] | 0.16 nM | 0.59 nM
CC(O)(c1ccc(Nc2nn([C@]3(CC#N)CCCOC3)c3cc[nH]c(=O)c23)cc1)C(F)(F)F (single isomer, unassigned) [Example 5-111, {(3S)-3-[4-oxo-3-({4-[(1R or 1S)-2,2,2-trifluoro-1-hydroxy-1-methylethyl]phenyl}amino)-4,5-dihydro-1H-pyrazolo[4,3-c]pyridin-1-yl]tetrahydro-2H-pyran-3-yl}acetonitrile] | 0.09 nM | 0.35 nM
CCOC(=O)C(C)(C)C(O)(c1ccc(Nc2nn([C@]3(CC#N)CCCOC3)c3cc[nH]c(=O)c23)cc1)C(F)(F)F (single isomer, unassigned) [Example 5-112, (S or R)-ethyl 3-(4-((1-((3S)-3-(cyanomethyl)tetrahydro-2H-pyran-3-yl)-4-oxo-4,5-dihydro-1H-pyrazolo[4,3-c]pyridin-3-yl)amino)phenyl)-4,4,4-trifluoro-3-hydroxy-2,2-dimethylbutanoate] | 1.07 nM | 2.53 nM
CCOC(=O)C(C)(C)C(O)(c1ccc(Nc2nn([C@]3(CC#N)CCCOC3)c3cc[nH]c(=O)c23)cc1)C(F)(F)F (single isomer, unassigned) [Example 5-113, (S or R)-ethyl 3-(4-((1-((3S)-3-(cyanomethyl)tetrahydro-2H-pyran-3-yl)-4-oxo-4,5-dihydro-1H-pyrazolo[4,3-c]pyridin-3-yl)amino)phenyl)-4,4,4-trifluoro-3-hydroxy-2,2-dimethylbutanoate] | 0.28 nM | 0.34 nM
Cc1cc(Nc2nn([C@]3(CC#N)CCCOC3)c3cc[nH]c(=O)c23)ccc1C(=O)N1CCC(O)(C(F)(F)F)C1 (single isomer, unassigned) [Example 5-114, 2-((S)-3-(3-((4-((S or R)-3-hydroxy-3-(trifluoromethyl)pyrrolidine-1-carbonyl)-3-methylphenyl)amino)-4-oxo-4,5-dihydro-1H-pyrazolo[4,3-c]pyridin-1-yl)tetrahydro-2H-pyran-3-yl)acetonitrile] | 0.33 nM | 1.31 nM
COC(=O)N1CCC(CC#N)(n2nc(Nc3ccc(C(C)(O)C(F)(F)F)cc3)c3c(=O)[nH]ccc32)CC1 (single isomer, unassigned) [Example 5-141, (R or S)-methyl 4-(cyanomethyl)-4-(4-oxo-3-((4-(1,1,1-trifluoro-2-hydroxypropan-2-yl)phenyl)amino)-4,5-dihydro-1H-pyrazolo[4,3-c]pyridin-1-yl)piperidine-1-carboxylate] | 0.18 nM | 0.43 nM
COC(=O)N1CCC(CC#N)(n2nc(Nc3ccc(C(C)(O)C(F)(F)F)cc3)c3c(=O)[nH]ccc32)CC1 (single isomer, unassigned) [Example 5-142, (R or S)-methyl 4-(cyanomethyl)-4-(4-oxo-3-((4-(1,1,1-trifluoro-2-hydroxypropan-2-yl)phenyl)amino)-4,5-dihydro-1H-pyrazolo[4,3-c]pyridin-1-yl)piperidine-1-carboxylate] | 0.13 nM | 0.33 nM
COC(=O)N1CCC(CC#N)(n2nc(Nc3ccc4c(c3)CCC4(O)C(F)(F)F)c3c(=O)[nH]ccc32)CC1 (single isomer, unassigned) [Example 5-143, (R or S)-methyl 4-(cyanomethyl)-4-(3-((1-hydroxy-1-(trifluoromethyl)-2,3-dihydro-1H-inden-5-yl)amino)-4-oxo-4,5-dihydro-1H-pyrazolo[4,3-c]pyridin-1-yl)piperidin-1-carboxylate] | 0.18 nM | 0.66 nM
COC(=O)N1CCC(CC#N)(n2nc(Nc3ccc4c(c3)CCC4(O)C(F)(F)F)c3c(=O)[nH]ccc32)CC1 (single isomer, unassigned) [Example 5-144, (R or S)-methyl 4-(cyanomethyl)-4-(3-((1-hydroxy-1-(trifluoro-methyl)-2,3-dihydro-1H-inden-5-yl)amino)-4-oxo-4,5-dihydro-1H-pyrazolo[4,3-c]pyridin-1-yl)piperidine-1-carboxylate] | 0.1 nM | 0.21 nM
Cc1cc(Nc2nn([C@]3(CC#N)CC[C@@H](C(=O)OC(C)(C)C)OC3)c3cc[nH]c(=O)c23)ccc1C(=O)N1CCSC1C (single isomer, unassigned) [Example 5-156, (2S,5S)-tert-butyl 5-(cyanomethyl)-5-(3-((3-methyl-4-((S or R)-2-methylthiazolidine-3-carbonyl)phenyl)amino)-4-oxo-4,5-dihydro-1H-pyrazolo[4,3-c]pyridin-1-yl)tetrahydro-2H-pyran-2-carboxylate] | 0.17 nM | 0.3 nM
